Laboratory results as given in patent US20120035247A1, “RNA Interference Mediated Inhibition of Signal Transducer and Activator of Transcription 6 (STAT6) Gene Expression Using Short Interfering Nucleic Acid (siNA)” (Merck Sharp & Dohme Corp., priority 2009, published 2012).
[invAb] = inverted abasic unit; m = 2'-O-methyl; r = 2'-OH (RNA); f = 2'-fluoro

Legend:
STAT6 mRNA [1] = experiment: STAT6 siNA screen and dose response in human A549 cells, STAT6 mRNA by quantitative RT-PCR (Taqman); assay type: cell-based; conditions: for % KD STAT6 mRNA 10 nM / IC50: Table 4, human A549 cells; for % KD STAT6 mRNA 10 nM / IC50 / % KD STAT6: mean ± S.D.; for % KD STAT6 10 nM: Table 5, A549 cells, three experiments, mean ± standard deviation; for % KD STAT6: human A549 cells, 10 nM siNA, 24 hrs, normalized to GAPDH and non-targeting control, n = 3
Summary of the method: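 A549 cells were transfected with siNA–RNAiMax complexes at a final 10 nM siNA and incubated 24 h without a medium change. STAT6 mRNA was measured by TaqMan qRT-PCR on cell lysates. Knock-down was calculated by the comparative Ct (ΔΔCt) method against the non-targeting control siNA, with relative expression taken as 2^−ΔΔCt.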

STAT6 mRNA [2] = experiment: STAT6 siNA screen in mouse NIH 3T3 cells, STAT6 mRNA by quantitative RT-PCR (Taqman); assay type: cell-based; conditions: mouse NIH3T3 cells, 10 nM siNA, 24 hrs, normalized to GAPDH and non-targeting control, n = 2
Summary of the method: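 NIH 3T3 cells, 5000/well, transfected after 24 h with siNA (10 nM final) via RNAiMax and harvested 24 h later. STAT6 mRNA quantified by TaqMan RT-qPCR with GAPDH; knock-down by comparative Ct (2^−ΔΔCt) against non-targeting control siNA.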

Substance	% KD STAT6 mRNA 10 nM (STAT6 mRNA [1])	IC50 (STAT6 mRNA [1])	% KD STAT6 10 nM (STAT6 mRNA [1])	% KD STAT6 (STAT6 mRNA [1])	% KD STAT6 (STAT6 mRNA [2])
29990-DC: STAT6 siNA duplex; sense SEQ ID NO: 44, antisense SEQ ID NO: 45; target GUGAAAGCCUGGUGGACAU, site 954 (sense GUGAAAGCCUGGUGGACAUTT; antisense AUGUCCACCAGGCUUUCACUU; sense: DNA at AGT, 2'-fluoro at CU, [invAb] at 5' end, 3' end, backbone not given here; antisense: sugars from the 5' end rrrfffmffmmmfffffmfmm, backbone not given here) [STAT6 siNA duplex; target GUGAAAGCCUGGUGGACAU, site 954]	71.7 ± 1.8%	23 ± 8.7 pM	71.7 ± 1.8%	71.7 ± 1.8%	41.6 ± 7.4%
29997-DC: STAT6 siNA duplex; sense SEQ ID NO: 58, antisense SEQ ID NO: 59; target CUACCAUGGUGCCUUCUUA, site 2262 (sense CUACCAUGGUGCCUUCUUATT; antisense UAAGAAGGCACCAUGGUAGUU; sense: DNA at AGT, 2'-fluoro at CU, [invAb] at 5' end, 3' end, backbone not given here; antisense: sugars from the 5' end rrrmmmmmfmffmfmmfmmmm, backbone not given here) [STAT6 siNA duplex; target CUACCAUGGUGCCUUCUUA, site 2262]	68.1 ± 6.2%	18.1 ± 8.3 pM	68.1 ± 6.2%	68.1 ± 6.2%	28.7 ± 6.1%
30008-DC: STAT6 siNA duplex; sense SEQ ID NO: 80, antisense SEQ ID NO: 81; target CUGCUCUGCUCAGAUGUGA, site 2549 (sense CUGCUCUGCUCAGAUGUGATT; antisense UCACAUCUGAGCAGAGCAGUU; sense: DNA at AGT, 2'-fluoro at CU, [invAb] at 5' end, 3' end, backbone not given here; antisense: sugars from the 5' end rrrfmfffmmmfmmmmfmmmm, backbone not given here) [STAT6 siNA duplex; target CUGCUCUGCUCAGAUGUGA, site 2549]	72.6 ± 4.5%	21.6 ± 12.4 pM	72.6 ± 4.5%	72.6 ± 4.5%	77.9 ± 7.5%
